Article PMC11302729, “Repurposing Hsp90 inhibitors as antimicrobials targeting two-component systems identifies compounds leading to loss of bacterial membrane integrity” (Microbiology Spectrum, 2024)
≈ marks a conversion by molar mass, not a printed value. Where “and” joins values, the source holds several entries; their conditions need not be identical. Identical values can stand only once. Like-named read-outs stand apart in the source and are kept apart here.

Tests used:
Assay type in all cases: cell-based
[1] = system: Pasteurella haemolytica ATCC 29701; test: MIC (microdilution) against P. haemolytica; details: Mannheimia haemolytica
Procedure: (§1) Staphylococcus aureus str. Newman, Enterococcus faecalis vanA (strain E0155), Enterococcus faecium vanA (strain E1654), Escherichia coli ATCC 25922, Escherichia coli D21f2 with a truncated LPS barrier, Escherichia coli JW5503 (ΔtolC) ([49]), Pseudomonas aeruginosa ATCC 27853, and Pasteurella haemolytica ATCC 29701 were grown in Mueller-Hinton Broth (MHB) (Oxoid, Basingstoke, UK) and incubated at 37°C.
(§2) The minimal inhibitory concentration was determined using the microdilution method following the guidelines of the European Committee on Antimicrobial Susceptibility Testing ([50]). Briefly, a series of twofold dilutions in MHB of each compound were made in a 96-well plate, with final concentrations ranging from 50 to 0.39 µg/mL in 100 µL final volume per well. A hundred microliters of 1:100 dilution of an overnight culture of the correspondent bacteria in MHB was added to each well. Plates were incubated for 18 hours at 37°C. MIC was recorded as the lowest concentration where no growth was detected as measured by optical density at 600 nm (OD600) using Spectramax M5 (Molecular Devices LLC, San Jose, CA, USA). […] Wells containing bacteria with or without 1% DMSO and medium alone were included as controls in every plate.

[2] = system: Enterococcus faecium vanA (strain E1654); test: MIC (microdilution) against E. faecium; details: Enterococcus faecium, read-out: MIC E. faecium
Procedure: as §1, §2

[3] = system: Escherichia coli JW5503 (ΔtolC); test: MIC (microdilution) against E. coli JW5503; details: Escherichia coli, read-out: MIC E. coli JW5503
Excerpt: (§3) We also tested the inhibitory activity of compounds in two different E. coli mutants: (i) E. coli JW5503 that lacks TolC efflux pumps and (ii) E. coli D21f2 that has a defective LPS inner core increasing permeability of the outer membrane. E. coli D21f2 has a slightly higher susceptibility to DPP compounds than E. coli ATCC25922.
as §1, §2

S. aureus str. Newman = test: Membrane permeability using SYTOX-Green, flow cytometry; details: for % FITC stained bacteria 0.5 xMIC: 0.5× MIC; for % FITC stained bacteria 0.5 xMIC / % FITC stained bacteria 1 xMIC / % FITC stained bacteria 2 xMIC / Loss of membrane integrity: 5 min exposure; for % FITC stained bacteria 1 xMIC / Loss of membrane integrity: 1× MIC; for % FITC stained bacteria 2 xMIC: 2× MIC; for Membrane damage: if considered to cause membrane damage to S. aureus
Procedure: S. aureus str. Newman was grown to exponential phase (OD600 = 0.4) in MHB media. […] Nisin (Sigma-Aldrich) and novobiocin (Sigma-Aldrich) were used as positive and negative controls for membrane permeabilization, and stained and unstained untreated controls were also included in each assay. After exposure, samples were centrifuged at 4,000 r.p.m. for 5 min and resuspended in PBS. Bacteria were dyed by adding the fluorescent nuclear stain SYTOX Green (Molecular Probes, Invitrogen) to a final concentration of 0.5 µM and incubating for 5 min in the dark. Samples were centrifuged again and resuspended with PBS to remove unbound stain. Three hundred microliters of each sample was transferred to a clean well in a 96-well clear-bottom plate (Corning Incorporated). Fluorescence was measured in CytoFLEX flow cytometer (Beckman Coulter, Brea, CA, USA) using the green (FITC) channel with the excitation wavelength at 488 nm. Overlay histograms were created with CytExpert Software (Beckman Coulter, Brea, CA, USA).

[4] = system: Escherichia coli ATCC 25922; test: MIC (microdilution) against E. coli; details: Escherichia coli, ATCC25922; Table ST1; read-out: MIC E. coli
Procedure: as §1, §2

sheep red blood cells = test: Haemolysis assay; details: if considered to cause haemolysis to red blood cells
Procedure: The hemolysis assay was adapted from the study by Evans et al. ([65]). Briefly, sheep RBC 10% washed pooled cells in PBS (Rockland Immunochemicals, Limerick, PA, USA) were diluted 1:5 to give a final concentration of 2% RBCs in PBS. […] A non-treated control, 1% DMSO (vehicle control), and complete cell lysis control (Triton-X 2%) were included in each assay. After exposure samples were centrifuged at 4°C at 1,000 g for 15 min and 100 µL of supernatant transferred to a clean well in a 96-well, clear, flat-bottom plate (Corning Incorporated). Released hemoglobin was measured by absorption at 540 nm using a Spectramax M5 plate reader. The experiments were performed in quadruplicate. The percentage of hemolysis was calculated as follows:
Hemolysis=A540nm,testcondition−A540nm,DMSOcontrol/A540nm,TritonXControl−A540nm,DMSOcontrol

[5] = system: Pseudomonas aeruginosa ATCC 27853; test: MIC (microdilution) against P. aeruginosa; details: Pseudomonas aeruginosa, ATCC27853; Table ST1; read-out: MIC P. aeruginosa
Procedure: as §1, §2

[6] = system: Enterococcus faecalis vanA (strain E0155); test: MIC (microdilution) against E. faecalis; details: Enterococcus faecalis, read-out: MIC E. faecalis
Procedure: as §1, §2

[7] = system: Staphylococcus aureus str. Newman; test: Minimal inhibitory concentration (microdilution) against S. aureus; details: for MIC S. aureus: Table ST3
Procedure: as §1, §2

in vitro = details: human
Procedure: (§4) HEK293 cells and the human hepatocellular carcinoma cells (HepG2) were routinely cultured in 75-cm^2 culture flasks (Corning Incorporated) on high-glucose Dulbecco’s modified Eagle medium (DMEM) containing glutaMax and phenol red (Gibco) supplemented with 1% penicillin/streptomycin (Gibco) and 10% fetal bovine serum (FBS) (Gibco). Cells were maintained at 37°C and 5% CO2.
(§5) Cytotoxicity assays with HEK293 and HepG2 cells were performed in 96-well plates seeded with 5 × 10^4 cells/well and incubated for 24 hours to reach 80%–90% confluency. Exterior wells were filled with only medium to prevent evaporation. Culture medium was removed from the cells, and 100 µL of exposure medium [high-glucose DMEM without phenol red (Gibco)] was added to avoid a potential interaction between FBS components or antibiotics and tested compounds. A twofold dilution series of compounds in exposure medium (range 100–3.2 μg/mL) was made in a separate 96-well plate, and 100 µL of each of these dilutions was added to the assay plates for 24 hours at 37°C in the presence of 5% CO2. Control wells contained cells with DMEM, DMEM + 1% DMSO (vehicle control), or DMEM + 20% DMSO. Wells without cells were also included as negative control. After exposure, the medium was replaced with 100 µL 10% Alamar Blue (Invitrogen) in exposure medium. After 45 min incubation at 37°C and 5% CO2, fluorescence was measured on a Spectramax M5 plate reader at λex = 541 nm, λem = 590 nm. Cell viability compared with the vehicle control was calculated, and inhibition curves for each compound were fitted (non-linear curve fit, four variables, bottom constrained = 0) in Prism 9 (GraphPad Software, San Diego, USA).

HEK293 cells = test: in vitro; details: LC50/MIC (HEK293 / S. aureus)
Procedure: as §4, §5

[8] = system: Escherichia coli D21f2 with a truncated LPS barrier; test: MIC (microdilution) against E. coli D21f2; details: read-out: MIC E coli D21f2
Excerpt: as §3, §1, §2

[9] = ATCC29701, read-out: MIC P. haemolytica, Table ST1
[10] = Staphylococcus aureus, NEWMAN, Fig 2
[11] = Staphylococcus aureus, NEWMAN, Fig 2, value in parentheses
[12] = Table ST3, value in parentheses
[13] = ATCC29701, Table ST1, read-out: MIC P. haemolytica

SMILES | MIC [1, 9] [µg/mL] | MIC [2] [µg/mL] | MIC [3] [µg/mL] | % FITC stained bacteria 0.5 xMIC (S. aureus str. Newman) [%] | % FITC stained bacteria 1 xMIC (S. aureus str. Newman) [%] | % FITC stained bacteria 2 xMIC (S. aureus str. Newman) [%] | Membrane damage (S. aureus str. Newman) | MIC [4] [µg/mL] | Haemolysis (sheep red blood cells) | MIC [5] [µg/mL] | MIC [6] [µg/mL] | MIC [7, 10] [µg/mL] | MIC [7, 11] [µM] | MIC S. aureus [7] [µg/mL] | MIC [7, 12] [µM] | CC50 at 24 h (in vitro) | Selectivity Index (HEK293 cells) | MIC [8] [µg/mL] | Loss of membrane integrity (S. aureus str. Newman) | MIC [1, 13] [µg/mL]
CCOc1ccc(-c2[nH]nc(C(F)(F)F)c2-c2ccccc2)c(O)c1 [DPP-3] | 50 (≈ 144 µM) | > 250 | 1.56 (≈ 4.48 µM) | 35.78 | 49.41 | 58.28 | YES | > 250 | YES | > 250 | > 250 | 6.25 | 17.9 | 6.25 (≈ 17.9 µM) | 17.86 | 25.6 µg/mL and 76.5 µM | 4.1 | – | – | –
Oc1cc(OCc2ccccc2)ccc1-c1[nH]nc(C(F)(F)F)c1-c1ccccc1 [DPP-4] | 125 (≈ 305 µM) | 3.12 (≈ 7.6 µM) | 6.25 (≈ 15.2 µM) | 7.94 | 14.15 | 19.78 | – | > 250 | – | > 250 | 3.12 (≈ 7.6 µM) | 1.56 | 3.8 | 1.56 (≈ 3.8 µM) | 3.80 | 7.26 µg/mL and 17.7 µM | 4.65 | > 50 | did not cause significant loss of membrane integrity | –
Oc1cc(OCc2ccccc2)ccc1-c1[nH]nc(C(F)(F)F)c1-c1ccc(Cl)cc1 [DPP-8] | 250 (≈ 562 µM) | 3.12 (≈ 7.01 µM) | 12.5 (≈ 28.1 µM) | 12.26 | 32.15 | 36.10 | YES | > 250 | YES | > 250 | 1.56 (≈ 3.51 µM) | 1.56 | 3.51 | 1.56 (≈ 3.51 µM) | 3.51 | 14.2 µg/mL and 32 µM | 9.14 | 25 (≈ 56.2 µM) | – | –
COc1ccc(-c2c(C(F)(F)F)n[nH]c2-c2ccc(OCc3ccccc3)cc2O)cc1 [DPP-15] | > 250 | 1.56 (≈ 3.54 µM) | 3.12 (≈ 7.08 µM) | 9.29 | 13.68 | 18.42 | – | > 250 | – | > 250 | 1.56 (≈ 3.54 µM) | 3.12 | 7.09 | 3.12 (≈ 7.08 µM) | 7.09 | 9.64 µg/mL and 21.9 µM | 3.10 | – | did not cause significant loss of membrane integrity | –
FC(F)(F)c1n[nH]c(-c2ccccc2)c1-c1ccc(Cl)cc1 [DPP-21] | – | 12.5 (≈ 38.7 µM) | 1.56 (≈ 4.83 µM) | 31.51 | 35.84 | 51.03 | YES | > 250 | YES | > 250 | 12.5 (≈ 38.7 µM) | 1.56 | 4.8 | 1.56 (≈ 4.83 µM) | 4.8 | – | 4.56 | > 250 | – | 12.5 (≈ 38.7 µM)
Oc1ccccc1-c1[nH]nc(C(F)(F)F)c1-c1ccc(Cl)cc1 [DPP-22] | – | 12.5 (≈ 36.9 µM) | 1.56 (≈ 4.61 µM) | – | – | – | – | > 250 | YES | > 250 | 12.5 (≈ 36.9 µM) | 1.56 | 4.59 | 1.56 (≈ 4.61 µM) | 4.59 | 2.89 µg/mL and 8.5 µM | 1.85 | 25 (≈ 73.8 µM) | – | 12.5 (≈ 36.9 µM)
